Data as given in the NIST ThermoML archive (doi:10.1021/je049960h).

Conditions: 101.33 kPa, Liquid; for viscosity: Capillary tube (Ostwald / Ubbelohde) method; for mass density: Pycnometric method; for thermal conductivity: Hot wire method

CC(O)CO (stereo not drawn) [1,2-propanediol]
Conditions | mass density [kg/m3] | thermal conductivity [W/m/K] | viscosity [mPa·s]
297.25 K | – | – | 46.4
298.85 K | 1033 | – | –
299.1 K | – | 0.196 | –
302.55 K | – | – | 34
313.6 K | – | 0.195 | –
317.1 K | – | – | 16.4
318.05 K | 1018 | – | –
332.3 K | – | – | 8.75
332.9 K | – | 0.195 | –
339 K | 1003 | – | –
347.4 K | – | – | 5.26
352.3 K | – | 0.194 | –
359.4 K | 986.1 | – | –
362.05 K | – | – | 3.42
371.6 K | – | 0.193 | –
376.45 K | – | – | 2.34
380.95 K | 967.6 | – | –
391.05 K | – | – | 1.67
391.1 K | – | 0.192 | –
399.6 K | 951.2 | – | –
406.05 K | – | – | 1.27
411.4 K | – | 0.19 | –
420.2 K | 931.7 | – | –
420.85 K | – | – | 0.982
430.4 K | – | 0.187 | –
440.35 K | 912.2 | – | –
450.8 K | – | 0.183 | –

CC(O)COC(C)COC(C)CO (stereo not drawn) [2-[2-(2-hydroxypropoxy)propoxy]-1-propanol]
Conditions | mass density [kg/m3] | thermal conductivity [W/m/K] | viscosity [mPa·s]
294.82 K | – | – | 69.4
295.01 K | 1017 | – | –
298.1 K | – | 0.152 | –
313.05 K | 1003 | – | 23.6
326.1 K | – | 0.152 | –
333.1 K | 986.4 | – | 9.64
351.1 K | – | 0.15 | –
353.1 K | 969.9 | – | 4.85
372.15 K | 953.5 | – | 2.91
376.2 K | – | 0.148 | –
391.5 K | 936.4 | – | 1.91
399.4 K | – | 0.145 | –
411.35 K | 918.7 | – | 1.33
424.9 K | – | 0.14 | –
428.2 K | 903.3 | – | 1.03
449.6 K | – | 0.135 | –

OCCCOCCCO [4-oxa-1,7-heptanediol]
Conditions | mass density [kg/m3] | thermal conductivity [W/m/K] | viscosity [mPa·s]
297.42 K | – | – | 81.5
297.45 K | 1020 | – | –
298.2 K | – | 0.156 | –
309.8 K | – | 0.157 | –
313.05 K | 1008 | – | –
313.07 K | – | – | 29.8
316.9 K | – | 0.156 | –
333.1 K | 992.4 | – | 11.1
347.4 K | – | 0.156 | –
353.1 K | 976.1 | – | 5.24
363 K | – | 0.156 | –
372.25 K | 960.3 | – | 3
377.6 K | – | 0.155 | –
391.45 K | 943.1 | – | 1.9
391.6 K | – | 0.154 | –
405.7 K | – | 0.153 | –
408.35 K | 928.1 | – | 1.36
420.3 K | 916.9 | – | 1.1
420.6 K | – | 0.151 | –
428.3 K | 909.6 | – | 0.97
435.1 K | – | 0.149 | –
